In patent publication US4431665A, “Acylated laidlomycin derivatives” (priority 1980, dated 1984):

Key:
[1] = tested on: rumen microorganisms (mixed microbial population of rumen contents); assay: Enhancement of intraruminal propionic acid production, batch culture fermentation of rumen contents; assay type: cell-based, bovine (rumen-fistulated); conditions: 9 h, 39° C.
Method: Enhancement of intraruminal propionic acid production is determined using a batch culture fermentation system. Rumen contents from a rumen-fistulated bovine are mixed with an equal amount of buffer which contains mineral, energy and nitrogen sources required for continued growth and metabolism of the mixed microbial population. Aliquots of this inoculum then are transferred to incubation vessels containing appropriate amounts of sodium laidlomycin (Na L.) (see Example 1A), and L. butyrate (L.C4) (prepared according to the procedure of Example 1A). After 9 hours of incubation at 39° C., concentrations of individual volatile fatty acids in each incubation vessel are determined by gas-liquid chromatography. The net production of each individual volatile fatty acid (acetic [AA], propionic [PA] and butyric [BA]) is calculated as the difference between the concentration after incubation and the concentration before incubation. The molar percentage of propionic acid produced is calculated from the following equation: [formula]
The comparative activities of sodium laidlomycin (Na L.) and the laidlomycin butyrate upon propionic acid and lactic acid production are set forth in Tables 1 and 2 where the concentration is in micrograms per ml (μg/ml).
(§1) The procedure of Example 2 was followed to compare laidlomycin (L.), sodium L. (Na L.), L.-propionate (L.C3), L. butyrate (L.C4), L. isobutyrate (L. isoC4), L. pentanoate (L.C5) and L. hexanoate (L.C6).
(§2) The procedure of Example 2 was followed to compare the activities of L. heptanoate (L. C7), L. octanoate (L. C8), L. decanoate (L. C10) and L. dodecanoate (L. C12) in increasing propionic acid production and inhibiting lactic acid production.
(§3) The procedure of Example 2 was followed to compare the activities of laidlomycin (L.) acetate (L. C2), L. pentanoate (L. C5), L. stearate (L. C18), L. cyclobutylcarboxylate, L. cyclopentylcarboxylate, L. cyclohexylcarboxylate and L. cyclopropylcarboxylate.

[2] = tested on: rumen contents (lactic acid accumulation); assay: Inhibition of lactic acid accumulation, second batch culture fermentation of rumen contents with glucose; assay type: cell-based, bovine (rumen fistulated); conditions: 6 h, 39° C.; for Lactic Acid Accumulation (μ mol/ml): Table 8, 0 μg/ml: 40.47; for Lactic Acid Accumulation: Table 6, 0 μg/ml: 36.65
Method: Inhibition of lactic acid accumulation is determined using a second batch culture fermentation system. Rumen contents from a rumen fistulated bovine are mixed with an equal amount of buffer which contains a 150 mM concentration of glucose. Following 6 hours of incubation at 39° C., lactic acid produced in the fermentation is analyzed by a specific enzymatic assay. The concentration of lactic acid in the fermentation broth is quantified by the increase in absorbance of light at […] when nicotinamide adenine dinucleotide is reduced by lactic acid with the aid of lactate dehydrogenase. […]
as §1, §2, §3

[3] = Table 7, 1.25 μg/ml, 0 μg/ml: 36.1
[4] = Table 7, 2.5 μg/ml, 0 μg/ml: 36.1
[5] = Table 7, 5 μg/ml, 0 μg/ml: 36.1
[6] = Table 7, 10 μg/ml, 0 μg/ml: 36.1
[7] = Table 7, 20 μg/ml, 0 μg/ml: 36.1
[8] = Table 7, .313 μg/ml, 0 μg/ml: 36.1
[9] = Table 7, .625 μg/ml, 0 μg/ml: 36.1

| SMILES | % Propionic Acid [1, 3] [%] | % Propionic Acid [1, 4] [%] | % Propionic Acid [1, 5] [%] | % Propionic Acid [1, 6] [%] | % Propionic Acid [1, 7] [%] | % Propionic Acid [1, 8] [%] | % Propionic Acid [1, 9] [%] | Lactic Acid Accumulation (μ mol/ml) ([2]; 1.25 μg/ml) | Lactic Acid Accumulation (μ mol/ml) ([2]; 2.5 μg/ml) | Lactic Acid Accumulation (μ mol/ml) ([2]; 5 μg/ml) | Lactic Acid Accumulation (μ mol/ml) ([2]; 10 μg/ml) | Lactic Acid Accumulation (μ mol/ml) ([2]; 20 μg/ml) | Lactic Acid Accumulation (μ mol/ml) ([2]; .313 μg/ml) | Lactic Acid Accumulation (μ mol/ml) ([2]; .625 μg/ml) | further results |
| --- | --- | --- | --- | --- | --- | --- | --- | --- | --- | --- | --- | --- | --- | --- | --- |
| CCCCCCCCCCCCCCCCCC(=O)OCC1(O)OC(C2CC(C)C(C3(C)CCC(C4(C)CCC5(CC(O)C(C)C(C(C)C(OC(=O)CC)C(C)C(=O)O)O5)O4)O3)O2)C(C)CC1C (stereo not shown) [L. C18, laidlomycin stearate] | 40.0 | 41.6 | 44.6 | 45.5 | 45.8 | 37.1 | 37.6 | 48.87 | 52.51 | 46.20 | 37.83 | 29.93 | 50.29 | 52.57 | – |
| CCCCC(=O)OCC1(O)OC(C2CC(C)C(C3(C)CCC(C4(C)CCC5(CC(O)C(C)C(C(C)C(OC(=O)CC)C(C)C(=O)O)O5)O4)O3)O2)C(C)CC1C (stereo not shown) [L. C5, laidlomycin pentanoate] | 48.7 | 50.9 | 49.9 | 51.6 | 51.1 | 45.9 | 48.1 | 4.67 | 3.75 | 4.04 | 4.63 | 5.13 | 24.62 | 11.91 | % Propionic Acid ([1]; Table 3, 1.25 μg/ml, 0 μg/ml: 28.5): 33.9%; % Propionic Acid ([1]; Table 3, 5 μg/ml, 0 μg/ml: 28.5): 36.1%; % Propionic Acid ([1]; Table 3, 20 μg/ml, 0 μg/ml: 28.5): 39.7%; % Propionic Acid ([1]; Table 3, .31 μg/ml, 0 μg/ml: 28.5): 30.6%; activity at 1.25 µg/mL ([2]; Bos taurus, read-out: Accumulation of Lactic Acid - % of Control, Table 4, 1.25 μg/ml): 54%; activity at 5 µg/mL ([2]; Bos taurus, read-out: Accumulation of Lactic Acid - % of Control, Table 4, 5 μg/ml): 13%; activity at 20 µg/mL ([2]; Bos taurus, read-out: Accumulation of Lactic Acid - % of Control, Table 4, 20 μg/ml): 11%; activity at 0.31 µg/mL ([2]; Bos taurus, read-out: Accumulation of Lactic Acid - % of Control, Table 4, .31 μg/ml): 109% |
| CCCCCCC(=O)OCC1(O)OC(C2CC(C)C(C3(C)CCC(C4(C)CCC5(CC(O)C(C)C(C(C)C(OC(=O)CC)C(C)C(=O)O)O5)O4)O3)O2)C(C)CC1C (stereo not shown) [L. C7, laidlomycin heptanoate] | – | – | – | – | – | – | – | – | – | – | – | – | – | – | % Propionic Acid ([1]; Table 5, 1.25 μg/ml, 0 μg/ml: 35.5): 46.2%; % Propionic Acid ([1]; Table 5, 2.5 μg/ml, 0 μg/ml: 35.5): 46.9%; % Propionic Acid ([1]; Table 5, 5 μg/ml, 0 μg/ml: 35.5): 48.4%; % Propionic Acid ([1]; Table 5, 10 μg/ml, 0 μg/ml: 35.5): 48.1%; % Propionic Acid ([1]; Table 5, 20 μg/ml, 0 μg/ml: 35.5): 47.2%; % Propionic Acid ([1]; Table 5, .31 μg/ml, 0 μg/ml: 35.5): 41.4%; % Propionic Acid ([1]; Table 5, .63 μg/ml, 0 μg/ml: 35.5): 45.3%; Lactic Acid Accumulation ([2]; 1.25 μg/ml): 1.90 µmol/mL; Lactic Acid Accumulation ([2]; 2.5 μg/ml): 1.32 µmol/mL; Lactic Acid Accumulation ([2]; 5 μg/ml): 1.16 µmol/mL; Lactic Acid Accumulation ([2]; 10 μg/ml): 1.46 µmol/mL; Lactic Acid Accumulation ([2]; 20 μg/ml): 1.94 µmol/mL; Lactic Acid Accumulation ([2]; .31 μg/ml): 38.37 µmol/mL; Lactic Acid Accumulation ([2]; .63 μg/ml): 14.12 µmol/mL |
| CCC(=O)OC(C(C)C(=O)O)C(C)C1OC2(CCC(C)(C3CCC(C)(C4OC(C5OC(O)(COC(C)=O)C(C)CC5C)CC4C)O3)O2)CC(O)C1C (stereo not shown) [L. C2] | 50.7 | 50.4 | 52.2 | 51.2 | 53.0 | 42.8 | 47.1 | 6.89 | 4.34 | 4.35 | 4.35 | 5.28 | 41.19 | 22.23 | – |
| CCC(=O)OC(C(C)C(=O)O)C(C)C1OC2(CCC(C)(C3CCC(C)(C4OC(C5OC(O)(COC(=O)C6CCCC6)C(C)CC5C)CC4C)O3)O2)CC(O)C1C (stereo not shown) [Cyclopentylcarboxylate, laidlomycin cyclopentylcarboxylate] | 51.9 | 50.3 | 51.1 | 51.6 | 50.0 | 47.1 | 47.9 | 3.63 | 3.73 | 4.08 | 4.53 | 9.66 | 24.75 | 6.79 | – |
| CCC(=O)OC(C(C)C(=O)O)C(C)C1OC2(CCC(C)(C3CCC(C)(C4OC(C5OC(O)(COC(=O)C6CC6)C(C)CC5C)CC4C)O3)O2)CC(O)C1C (stereo not shown) [Cyclopropylcarboxylate, laidlomycin cyclopropylcarboxylate] | 49.7 | 49.3 | 50.9 | 49.6 | 50.7 | 47.7 | 46.4 | 2.50 | 3.16 | 3.17 | 3.53 | 3.96 | 15.54 | 2.12 | – |
| CCC(=O)OC(C(C)C(=O)O)C(C)C1OC2(CCC(C)(C3CCC(C)(C4OC(C5OC(O)(COC(=O)C6CCC6)C(C)CC5C)CC4C)O3)O2)CC(O)C1C (stereo not shown) [Cyclobutylcarboxylate, laidlomycin cyclobutylcarboxylate] | 50.0 | 52.5 | 51.7 | 51.8 | 51.2 | 47.5 | 47.1 | 3.82 | 4.01 | 4.32 | 4.73 | 4.75 | 23.25 | 8.05 | – |
